The values that follow come from patent US20120172292A1, “METHOD FOR PROTECTION OF ANTIMICROBIAL AND ANTICANCER DRUGS FROM INACTIVATION BY NITRIC OXIDE” (NEW YORK UNIVERSITY, priority 2009, published 2012).

Structures are written as SMILES. Values joined by “and” are separate entries in the source; they are usually repeats but may differ in a detail not shown here. Equal values may be shown once.

Data set [1] deals with B.subtilis. It counts as cell-based.
Data set [2] concerns B.subtilis. Nature of the data set: Growth of B.subtilis with ACR or AO premixed with NO donor. It counts as cell-based.
Data set [3] deals with Streptococcus C203. As to conditions: cited from earlier work.
For data set [4], the system named is B.anthracis. Type of data set: cell-based.
Data set [5] concerns B.subtilis 6051 and Δnos. Type of data set: cell-based. As to conditions: 25 μg/ml cefuroxime.
Data set [6] concerns S.aureus 4220 and Δnos. It counts as cell-based. As to conditions: 0.4 μg/ml CEF.
The test system of data set [7] is B. subtilis. Type of data set: cell-based.
In data set [8] the test system is B.anthracis. It counts as cell-based. As to conditions: CuFL 20 μM.
In data set [9] the test system is S. aureus. As to conditions: cited from earlier work.
Data set [10] deals with HepG2 human hepatocytes.
Data set [11] relates to Streptococcus. As to conditions: cited from earlier work.

In the case of `c1ccc(-c2ccccn2)nc1` [bipyridyl], in data set [1], the “effect of pretreatment on toxicity of ACR” value is on record as “substantially decreased the toxicity of ACR”. Take `CN(C)c1ccc2cc3ccc(N(C)C)cc3nc2c1` [AO, acridine orange]: the “effect of NO treatment on antibacterial activity” value in data set [2] was “unaffected by NO treatment”. Moreover, the “antibacterial effect compared with ACR” value in data set [2] (10 μg/ml) was “significantly less than that of ACR”. Broadly, the MIC is the lowest concentration found to suppress growth. Take `COc1cc2c(N)c3ccc([N+](=O)[O-])cc3[n+]([O-])c2cc1OC` [9-Amino-2,3-dimethoxy-6-nitroacridine 10-oxides]: the MIC in data set [3] is 20 nM and ~6 ng/ml.

Consider `CO/N=C(\C(=O)N[C@@H]1C(=O)N2C(C(=O)O)=C(COC(N)=O)CS[C@H]12)c1ccco1` [cefuroxime], for which the “killing of nos deficient versus wt cells” value in [4] and in data set [5] was “much more efficiently than wt cells” throughout. In data set [6], the “growth inhibition of nos-deficient versus wild type cells” value is listed as “much greater extent”. Further, in data set [7], the “end products of NO oxidation (nitrite/nitrate) in growing culture after challenge” value is on record as “increase”. Also, the “NO production after antibiotic challenge” value in [8] is “greatly stimulated NO production”. Take `Cc1cc2cc3ccc(N(C)C)cc3[n+](C)c2cc1N.[Cl-]` [Flavicid]: in [9], the MIC is 10 μM and ~2.6 μg/ml.

`COC(=O)[C@@H](N)CCCNC(=N)N[N+](=O)[O-]` [L-NAME, N G -nitro-L-arginine methyl ester]: the “sensitivity of hepatocytes to AMSAcrine after inhibition of cellular NOS” value in data set [10] (4 mM L-NAME 8 hours prior to 20 μM AMSAcrine) is listed as “increased sensitization”. Consider `Nc1c2ccccc2nc2cc([N+](=O)[O-])ccc12` [3-nitro-9-aminoacridine], for which, in data set [11], the MIC is 1.5 μM and ~0.4 μg/ml.

`COc1cc(NS(C)(=O)=O)ccc1Nc1c2ccccc2nc2ccccc12` [AMSAcrine]: the “cell survival, AMSAcrine preincubated with exogenous NO versus AMSAcrine alone” value in [10] (20 μM AMSAcrine, 100 μM MAHMA NONOate, viability 24 hours later) amounted to 5.5 fold.
